Read-outs that look alike come from different tables or passages of the source.
What was measured:
[1] = test system: R848-induced TNFα production by human peripheral blood mononuclear cells (PBMCs); assay: R848 Induced TNFα in Human PBMC Assay; assay type: cell-based
[2] = target: human IRAK4 FL (Full Length) (Homo sapiens (Human), UniProt Q9NWZ3); assay: IRAK4 Enzymatic DELFIA Assay, Protocol A; assay type: biochemical
[3] = Homo sapiens, PBMC, 3 h, read-out: R848-induced TNFa PBMC IC50 (nM)
[4] = human IRAK4 FL, 0.6 mM ATP (KM), read-out: IRAK4 DELFIA Protocol A IC50

human IRAK4 FL (Full Length), sequence (Q9NWZ3 whole entry): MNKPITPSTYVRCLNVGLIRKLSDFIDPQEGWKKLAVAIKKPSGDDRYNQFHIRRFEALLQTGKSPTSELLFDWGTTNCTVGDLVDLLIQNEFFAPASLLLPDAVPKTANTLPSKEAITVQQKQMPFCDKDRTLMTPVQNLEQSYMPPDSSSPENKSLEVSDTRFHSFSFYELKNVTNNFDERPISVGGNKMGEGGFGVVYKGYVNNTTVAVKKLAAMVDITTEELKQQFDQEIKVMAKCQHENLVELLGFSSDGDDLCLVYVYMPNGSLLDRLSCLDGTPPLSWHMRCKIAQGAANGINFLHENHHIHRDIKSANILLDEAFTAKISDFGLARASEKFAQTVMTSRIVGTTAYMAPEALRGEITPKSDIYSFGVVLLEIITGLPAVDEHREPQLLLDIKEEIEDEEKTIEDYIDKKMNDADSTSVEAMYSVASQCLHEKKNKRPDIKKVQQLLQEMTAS

SMILES | IC50 [2, 4] [µM] | also measured
CC[C@]12C[C@H]1C(=O)N[C@@H]2COc1nccc2cc(C(N)=O)c(OC)cc12 [Example 299, 1-{[(1S,2S,5R)-1-ethyl-4-oxo-3-azabicyclo[3.1.0]hex-2-yl]methoxy}-7-methoxyisoquinoline-6-carboxamide] | – | IC50 [1, 3]: 49 nM
COc1cc2c(OC[C@H]3NC(=O)[C@@H]4C(CCF)C43)nccc2cc1C(N)=O (stereo in doubt) [Example 306, 1-(((1R,2S,5R,6R)-6-(2-fluoroethyl)-4-oxo-3-azabicyclo[3.1.0]hexan-2-yl)methoxy)-7-methoxyisoquinoline-6-carboxamide] | – | IC50 [1, 3]: 4060 nM
CC[C@@H]1[C@H](F)C(=O)NC1(O)COc1nccc2cc(C(N)=O)c(OC)cc12 (stereo partly drawn) [Example 197, 1-{[(3S,4S)-3-ethyl-4-fluoro-2-hydroxy-5-oxopyrrolidin-2-yl]methoxy}-7-methoxyisoquinoline-6-carboxamide] | – | IC50 ([1]; human PBMC, absence of serum, 3 hours, read-out: R848-induced TNFa PBMC IC50): 71 nM
COc1cc2c(OC[C@@H]3C[C@@H](C4CCOCC4)C(=O)N3)nccc2cc1C(N)=O [Example 286, 7-methoxy-1-{[(2S,4S)-5-oxo-4-(tetrahydro-2H-pyran-4-yl)pyrrolidin-2-yl]methoxy}isoquinoline-6-carboxamide] | – | IC50 [1, 3]: 7020 nM
CC[C@@H]1C2[C@@H](COc3nccc4cc(C(N)=O)c(OC)cc34)NC(=O)[C@@H]21 (stereo in doubt) [Example 301, 1-(((1R,2S,5R,6R)-6-ethyl-4-oxo-3-azabicyclo[3.1.0]hexan-2-yl)methoxy)-7-methoxyisoquinoline-6-carboxamide] | – | IC50 [1, 3]: 4050 nM
CC(C)Oc1cc2c(OCC3NC(=O)C4CCCCC34)nccc2cc1C(N)=O (centres unmarked) [Example 118, 1-[(3-oxooctahydro-1H-isoindol-1-yl)methoxy]-7-(propan-2-yloxy)isoquinoline-6-carboxamide] | 0.162 | –
COc1cc2c(OC[C@@H]3C[C@H](CC(F)(F)F)C(=O)N3)nccc2cc1C(N)=O [Example 270, 7-methoxy-1-{[(2S,4R)-5-oxo-4-(2,2,2-trifluoroethyl)pyrrolidin-2-yl]methoxy}isoquinoline-6-carboxamide] | 0.29 | –
CC(C)Oc1cc2c(OC[C@@H]3CCC(=O)N3)ncc(-c3cccc(=O)[nH]3)c2cc1C(N)=O [Example 378, 4-(6-oxo-1,6-dihydropyridin-2-yl)-1-{[(2S)-5-oxopyrrolidin-2-yl]methoxy}-7-(propan-2-yloxy)isoquinoline-6-carboxamide] | – | IC50 [2]: 0.059 µM
CC(C)Oc1cc2c(OC[C@@]3(CO)CCC(=O)N3)nccc2cc1C(N)=O [Example 153, 1-{[(2S)-2-(hydroxymethyl)-5-oxopyrrolidin-2-yl]methoxy}-7-(propan-2-yloxy)isoquinoline-6-carboxamide] | 1.48 | –
NC(=O)c1cc2ccnc(OC[C@@H]3CCC(=O)N3)c2cc1OC1CCC1 [Example 120, 7-(cyclobutyloxy)-1-{[(2S)-5-oxopyrrolidin-2-yl]methoxy}isoquinoline-6-carboxamide] | 1.14 | –
CC(C)Oc1cc2c(OC[C@@H]3C[C@@H](C4(O)COC4)C(=O)N3)nccc2cc1C(N)=O [Example 193, 1-{[(2S,4S)-4-(3-hydroxyoxetan-3-yl)-5-oxopyrrolidin-2-yl]methoxy}-7-(propan-2-yloxy)isoquinoline-6-carboxamide] | 0.238 | –
CCOc1cc2c(OC[C@H]3NC(=O)[C@@H]4C[C@H]34)ccnc2cc1C(N)=O [Example 280, 6-ethoxy-4-{[(1S,2S,5R)-4-oxo-3-azabicyclo[3.1.0]hex-2-yl]methoxy}quinoline-7-carboxamide] | 3.79 | –
CC(C)Oc1cc2c(OC[C@@H]3CCN(C(=O)CC#N)C3)ccnc2cc1C(N)=O [Example 23, 4-{[(3R)-1-(cyanoacetyl)pyrrolidin-3-yl]methoxy}-6-(propan-2-yloxy)quinoline-7-carboxamide] | 0.656 | –
NC(=O)c1cc2ccnc(OC[C@@H]3CCC(=O)N3)c2cc1OC1COC1 [Example 199, 7-(oxetan-3-yloxy)-1-{[(2S)-5-oxopyrrolidin-2-yl]methoxy}isoquinoline-6-carboxamide] | 2.9 | –
COc1cc2c(OC[C@H]3NC(=O)C[C@@H]3CO)nccc2cc1C(N)=O [Example 214, 1-{[(2S,3S)-3-(hydroxymethyl)-5-oxopyrrolidin-2-yl]methoxy}-7-methoxyisoquinoline-6-carboxamide] | 0.215 | –
CC(C)Oc1cc2c(OC[C@@H]3CCC(=O)N3)nccc2cc1C(=O)O [Example 169, 1-{[(2S)-5-oxopyrrolidin-2-yl]methoxy}-7-(propan-2-yloxy)isoquinoline-6-carboxylic acid] | 0.89 | –
NC(=O)c1cc2ccnc(OC[C@@H]3CCC(=O)N3)c2cc1OCC1CC1 [Example 204, 7-(cyclopropylmethoxy)-1-{[(2S)-5-oxopyrrolidin-2-yl]methoxy}isoquinoline-6-carboxamide] | 2.06 | –
CC(C)Oc1cc2c(OC[C@@H]3C[C@H](C(C)(C)O)C(=O)N3)nccc2cc1C(N)=O [Example 137, 1-{[(2S,4R)-4-(2-hydroxypropan-2-yl)-5-oxopyrrolidin-2-yl]methoxy}-7-(propan-2-yloxy)isoquinoline-6-carboxamide] | 0.098 | –

SMILES | IC50 [2, 4] [µM] | also measured
CC(C)Oc1cc2c(OC[C@]34CCC[C@H]3CNC4)nccc2cc1C(N)=O [Example 123, 1-[(3aR,6aR)-hexahydrocyclopenta[c]pyrrol-3a(1H)-ylmethoxy]-7-(propan-2-yloxy)isoquinoline-6-carboxamide] | 0.747 | –
NC(=O)c1cc2ccnc(OC[C@@H]3CCC(=O)N3)c2cc1OC(F)(F)F [Example 178, 1-{[(2S)-5-oxopyrrolidin-2-yl]methoxy}-7-(trifluoromethoxy)isoquinoline-6-carboxamide] | 1.69 | –
COc1cc2c(O[C@@H](C)[C@@H]3CCC(=O)N3)nccc2cc1C(N)=O [Example 354, 7-methoxy-1-{(1S)-1-[(2S)-5-oxopyrrolidin-2-yl]ethoxy}isoquinoline-6-carboxamide] | 2.89 | –
Cc1cnc(OC[C@@H]2CCC(=O)N2)c2cc(OC(C)C)c(C(N)=O)cc12 [Example 05, 4-methyl-1-{[(2S)-5-oxopyrrolidin-2-yl]methoxy}-7-(propan-2-yloxy)isoquinoline-6-carboxamide] | 0.084 | –
CC(C)Oc1cc2c(OC[C@@H]3CCC(=O)N3)ncc(-c3ncc(Cl)cn3)c2cc1C(N)=O [Example 377, 4-(5-chloropyrimidin-2-yl)-1-{[(2S)-5-oxopyrrolidin-2-yl]methoxy}-7-(propan-2-yloxy)isoquinoline-6-carboxamide] | 0.072 | –
COc1cc2c(OC[C@H]3CN(C)C(=O)O3)nccc2cc1C(N)=O [Example 239, 7-methoxy-1-{[(5R)-3-methyl-2-oxo-1,3-oxazolidin-5-yl]methoxy}isoquinoline-6-carboxamide] | 1.18 | –
CC(C)Oc1cc2c(OCC3CN(C(=O)CC#N)C3)nccc2cc1C(N)=O [Example 69, 1-{[1-(cyanoacetyl)azetidin-3-yl]methoxy}-7-(propan-2-yloxy)isoquinoline-6-carboxamide] | 0.029 | –
CC(C)Oc1cc2c(OCC3CN(C(=O)CC#N)C3)ccnc2cc1C(N)=O [Example 60, 4-{[1-(cyanoacetyl)azetidin-3-yl]methoxy}-6-(propan-2-yloxy)quinoline-7-carboxamide] | 0.0089 | –
COc1cc2c(OC[C@H]3NC(=O)[C@@](F)(CO)[C@H]3C)nccc2cc1C(N)=O [Example 210, 1-{[(2S,3S,4S)-4-fluoro-4-(hydroxymethyl)-3-methyl-5-oxopyrrolidin-2-yl]methoxy}-7-methoxyisoquinoline-6-carboxamide] | 3.47 | –
CC(C)(C)Oc1cc2c(OC[C@@H]3CCC(=O)N3)nccc2cc1C(N)=O [Example 200, 7-tert-butoxy-1-{[(2S)-5-oxopyrrolidin-2-yl]methoxy}isoquinoline-6-carboxamide] | 0.697 | –
COc1cc2c(OC[C@H]3NC(=O)[C@@H](C)[C@@H]3CF)nccc2cc1C(N)=O [Example 254, 1-{[(2S,3S,4S)-3-(fluoromethyl)-4-methyl-5-oxopyrrolidin-2-yl]methoxy}-7-methoxyisoquinoline-6-carboxamide] | 2.95 | –
CC(C)Oc1cc2c(OC[C@@H]3C[C@H](C4(O)COC4)C(=O)N3)nccc2cc1C(N)=O [Example 192, 1-{[(2S,4R)-4-(3-hydroxyoxetan-3-yl)-5-oxopyrrolidin-2-yl]methoxy}-7-(propan-2-yloxy)isoquinoline-6-carboxamide] | 0.284 | –
Cc1nccc(-c2cnc(OC[C@@H]3CCC(=O)N3)c3cc(OC(C)C)c(C(N)=O)cc23)n1 [Example 379, 4-(2-methylpyrimidin-4-yl)-1-{[(2S)-5-oxopyrrolidin-2-yl]methoxy}-7-(propan-2-yloxy)isoquinoline-6-carboxamide] | 0.503 | –
CC(C)Oc1cc2c(OC[C@]3(CO)CCC(=O)N3)nccc2cc1C(N)=O [Example 154, 1-{[(2R)-2-(hydroxymethyl)-5-oxopyrrolidin-2-yl]methoxy}-7-(propan-2-yloxy)isoquinoline-6-carboxamide] | 0.017 | –
COc1cc2c(OC[C@H]3NC(=O)[C@H](F)[C@H]3CF)nccc2cc1C(N)=O [Example 375, 1-{[(2S,3R,4R)-4-fluoro-3-(fluoromethyl)-5-oxopyrrolidin-2-yl]methoxy}-7-methoxyisoquinoline-6-carboxamide] | 0.0003 | –
COc1cc2c(OC[C@@H]3C[C@H](CC#N)C(=O)N3)nccc2cc1C(N)=O [Example 224, 1-{[(2S,4R)-4-(cyanomethyl)-5-oxopyrrolidin-2-yl]methoxy}-7-methoxyisoquinoline-6-carboxamide] | 1.17 | –
CC(C)Oc1cc2c(OC[C@@H]3CCC(=O)N3)ncc(CN)c2cc1C(N)=O [Example 195, 4-(aminomethyl)-1-{[(2S)-5-oxopyrrolidin-2-yl]methoxy}-7-(propan-2-yloxy)isoquinoline-6-carboxamide] | – | IC50 [2]: 3.4 µM

Source: US10329302B2, “Bicyclic-fused heteroaryl or aryl compounds” (Pfizer Inc., priority 2014, dated 2019)
